Laboratory results from ChEMBL document CHEMBL1153371, “Antiseizure activity of novel gamma-aminobutyric acid (A) receptor subtype-selective benzodiazepine analogues in mice and rat models” (J Med Chem, 2009).
Active and inactive are the calls of the source. The rule behind the calls is not given here.

Experiments:
[1] = molecular target: GABA-A receptor; alpha-5/beta-3/gamma-2 (Homo sapiens) (UniProt P18507+P28472+P31644); test: Activity at GABAA alpha-5-beta-3-gamma-2 receptor expressed in oocytes assessed as stimulation of GABA-induced current at 1 uM relative to control; assay type: cell-based; conditions: Oocyte
Mus musculus [2] = test: Anticonvulsant activity in ip dosed mouse assessed as protection against subcutaneous metrazole-induced seizure; assay type: functional
[3] = Toxicity in po dosed rat assessed as minimal muscular or neurological impairment by rotarod paradigm test; assay type: organism-based; conditions: in vivo
[4] = Toxicity in ip dosed mouse assessed as minimal muscular or neurological impairment by rotarod paradigm test; assay type: organism-based; conditions: in vivo
Rattus norvegicus [5] = test: Anticonvulsant activity in rat assessed as protection against maximal electroshock-induced seizure at 30 mg/kg, ip and po after 4 hrs; assay type: functional, organism-based; parameters: dose 30 mg/kg
Rattus norvegicus [6] = test: Anticonvulsant activity in po dosed rat assessed as protection against subcutaneous metrazole-induced seizure; assay type: functional
Rattus norvegicus [7] = test: Toxicity in rat assessed as motor impairment at 50 mg/kg, ip after 1 hr by rotarod paradigm test; assay type: organism-based; parameters: dose 50 mg/kg, route intraperitoneal; conditions: in vivo
Mus musculus [8] = test: Anticonvulsant activity in mouse assessed as protection against maximal electroshock-induced seizure at 100 mg/kg, ip after 4 hrs; assay type: functional, organism-based; parameters: dose 100 mg/kg
[9] = Therapeutic index, ratio of TD50 for ip dosed mouse to ED50 for protection against subcutaneous metrazole-induced seizure in ip dosed mouse; assay type: organism-based; conditions: in vivo, read-out: Ratio TD50/ED50
Rattus norvegicus [10] = test: Anticonvulsant activity in rat assessed as protection against subcutaneous metrazole-induced seizure at 50 mg/kg, ip after 0.5 hrs; assay type: functional
Mus musculus [11] = test: Toxicity in mouse assessed as motor impairment at 100 mg/kg, ip after 4 hrs by rotarod paradigm test; assay type: organism-based; parameters: dose 100 mg/kg, route intraperitoneal; conditions: in vivo
Rattus norvegicus [12] = test: Anticonvulsant activity in rat assessed as blockade against kindle motor-induced seizure at 100 mg/kg, ip by hippocampal kindling screen test; assay type: functional, organism-based; parameters: dose 100 mg/kg; conditions: Hippocampus
[13] = molecular target: T1, Gamma-aminobutyric acid receptor subunit alpha-3 (Homo sapiens) (UniProt P34903); test: Activity at GABAA alpha-3-beta-3-gamma-2 receptor expressed in oocytes assessed as stimulation of GABA-induced current at 1 uM relative to control; assay type: cell-based; conditions: Oocyte
T1 sequence (whole entry): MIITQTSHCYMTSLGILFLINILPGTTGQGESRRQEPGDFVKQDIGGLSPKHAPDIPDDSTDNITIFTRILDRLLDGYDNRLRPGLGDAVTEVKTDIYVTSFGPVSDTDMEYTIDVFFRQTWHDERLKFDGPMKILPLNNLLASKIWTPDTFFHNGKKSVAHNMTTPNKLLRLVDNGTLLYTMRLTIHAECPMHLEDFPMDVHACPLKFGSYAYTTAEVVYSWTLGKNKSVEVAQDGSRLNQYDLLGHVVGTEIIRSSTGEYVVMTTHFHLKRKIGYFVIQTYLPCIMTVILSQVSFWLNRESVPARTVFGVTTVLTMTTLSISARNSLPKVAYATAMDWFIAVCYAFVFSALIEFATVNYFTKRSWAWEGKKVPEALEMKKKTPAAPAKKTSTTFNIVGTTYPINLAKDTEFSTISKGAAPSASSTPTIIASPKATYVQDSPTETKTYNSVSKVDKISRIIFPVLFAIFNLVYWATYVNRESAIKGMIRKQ

Rattus norvegicus [14] = test: Anticonvulsant activity against kindle motor-induced seizure in rat assessed as after discharge duration at 100 mg/kg, ip by hippocampal kindling screen test; assay type: functional, Hippocampus; conditions: route intraperitoneal
Rattus norvegicus [15] = test: Toxicity in rat assessed as sedative effect at 500 mg/kg, po; assay type: organism-based; parameters: dose 500 mg/kg, route oral; conditions: in vivo
Rattus norvegicus [16] = test: Toxicity in rat assessed as motor impairment at 50 mg/kg, ip after 0.5 hrs by rotarod paradigm test; assay type: organism-based; parameters: dose 50 mg/kg, route intraperitoneal; conditions: in vivo
[17] = molecular target: GABA-A receptor; alpha-1/beta-3/gamma-2 (Homo sapiens) (UniProt P14867+P18507+P28472); test: Activity at GABAA alpha-1-beta-3-gamma-2 receptor expressed in oocytes assessed as stimulation of GABA-induced current at 1 uM relative to control; assay type: cell-based; conditions: Oocyte
Mus musculus [18] = test: Toxicity in mouse assessed as motor impairment at 100 mg/kg, ip after 0.5 hrs by rotarod paradigm test; assay type: organism-based; parameters: dose 100 mg/kg, route intraperitoneal; conditions: in vivo
Rattus norvegicus [19] = test: Anticonvulsant activity in rat assessed as protection against subcutaneous metrazole-induced seizure at 50 mg/kg, po after 0.5 hrs; assay type: functional
[20] = molecular target: GABA-A receptor; alpha-2/beta-3/gamma-2 (Homo sapiens) (UniProt P18507+P28472+P47869); test: Activity at GABAA alpha-2-beta-3-gamma-2 receptor expressed in oocytes assessed as stimulation of GABA-induced current at 1 uM relative to control; assay type: cell-based; conditions: Oocyte
[21] = Therapeutic index, ratio of TD50 for po dosed rat to ED50 for protection against subcutaneous metrazole-induced seizure in po dosed rat; assay type: organism-based; conditions: in vivo, read-out: Ratio TD50/ED50
Mus musculus [22] = test: Anticonvulsant activity in mouse assessed as protection against subcutaneous metrazole-induced seizure at 100 mg/kg, ip after 4 hrs; assay type: functional, organism-based; parameters: dose 100 mg/kg
Rattus norvegicus [23] = test: Anticonvulsant activity in rat assessed as protection against subcutaneous metrazole-induced seizure at 50 mg/kg, ip after 4 hrs; assay type: functional
Mus musculus [24] = test: Anticonvulsant activity in mouse assessed as protection against maximal electroshock-induced seizure at 100 mg/kg, ip after 0.5 hrs; assay type: functional, organism-based; parameters: dose 100 mg/kg
Rattus norvegicus [25] = test: Toxicity in rat assessed as motor impairment at 30 mg/kg, ip after 1 hr by rotarod paradigm test; assay type: organism-based; parameters: dose 30 mg/kg, route intraperitoneal; conditions: in vivo
Rattus norvegicus [26] = test: Anticonvulsant activity in po dosed rat assessed as protection against maximal electroshock-induced seizure; assay type: functional
Mus musculus [27] = test: Anticonvulsant activity in ip dosed mouse assessed as protection against maximal electroshock-induced seizure; assay type: functional
Rattus norvegicus [28] = test: Toxicity in rat assessed as motor impairment at 50 mg/kg, po after 4 hrs by rotarod paradigm test; assay type: organism-based; parameters: dose 50 mg/kg, route oral; conditions: in vivo
Rattus norvegicus [29] = test: Toxicity in rat assessed as motor impairment at 3 mg/kg, ip after 1 hr by rotarod paradigm test; assay type: organism-based; parameters: dose 3 mg/kg, route intraperitoneal; conditions: in vivo
Rattus norvegicus [30] = test: Anticonvulsant activity in rat assessed as blockade against kindle motor-induced seizure at 10 mg/kg, ip by hippocampal kindling screen test; assay type: functional, organism-based; parameters: dose 10 mg/kg; conditions: Hippocampus
Rattus norvegicus [31] = test: Anticonvulsant activity against kindle motor-induced seizure in rat assessed as after discharge duration at 10 mg/kg, ip by hippocampal kindling screen test; assay type: functional, Hippocampus; conditions: route intraperitoneal
Rattus norvegicus [32] = test: Anticonvulsant activity in rat assessed as protection against maximal electroshock-induced seizure at 30 mg/kg, ip and po after 0.5 hrs; assay type: functional, organism-based; parameters: dose 30 mg/kg
Rattus norvegicus [33] = test: Anticonvulsant activity in rat assessed as protection against subcutaneous metrazole-induced seizure at 15 mg/kg, po after 4 hrs; assay type: functional
Rattus norvegicus [34] = test: Toxicity in rat assessed as motor impairment at 50 mg/kg, po after 0.5 hrs by rotarod paradigm test; assay type: organism-based; parameters: dose 50 mg/kg, route oral; conditions: in vivo
Rattus norvegicus [35] = test: Toxicity in rat assessed as motor impairment at 50 mg/kg, po after 1 hr by rotarod paradigm test; assay type: organism-based; parameters: dose 50 mg/kg, route oral; conditions: in vivo
Rattus norvegicus [36] = test: Toxicity in rat assessed as motor impairment at 50 mg/kg, ip after 4 hrs by rotarod paradigm test; assay type: organism-based; parameters: dose 50 mg/kg, route intraperitoneal; conditions: in vivo
Rattus norvegicus [37] = test: Anticonvulsant activity in rat assessed as blockade against kindle motor-induced seizure at 50 mg/kg, ip by hippocampal kindling screen test; assay type: functional, organism-based; parameters: dose 50 mg/kg; conditions: Hippocampus
Rattus norvegicus [38] = test: Anticonvulsant activity in rat assessed as protection against subcutaneous metrazole-induced seizure at 50 mg/kg, po after 4 hrs; assay type: functional, organism-based; parameters: dose 50 mg/kg
Rattus norvegicus [39] = test: Anticonvulsant activity against kindle motor-induced seizure in rat assessed as after discharge duration at 50 mg/kg, ip by hippocampal kindling screen test; assay type: functional, Hippocampus; conditions: route intraperitoneal

| Structure (SMILES) | Activity [1] | ED50 (Mus musculus [2]) | TD50 [3] | TD50 [4] | ED50 (Rattus norvegicus [6]) | selectivity ratio [9] | Activity [13] | Activity (Rattus norvegicus [16]) | Activity [17] | Activity [20] | selectivity ratio [21] | ED50 (Rattus norvegicus [26]) | ED50 (Mus musculus [27]) | further results |
| --- | --- | --- | --- | --- | --- | --- | --- | --- | --- | --- | --- | --- | --- | --- |
| C#Cc1ccc2c(c1)C(c1ccccn1)=NCc1c(C(=O)OCC)ncn1-2 | 174% | 16.3 mg/kg | > 500 mg/kg | > 500 mg/kg | 98.5 mg/kg | > 30.2 | 346% | Non-toxic | 167% | 313% | > 5 | > 250 mg/kg | > 300 mg/kg | Activity (Rattus norvegicus [5]): inactive; Activity (Rattus norvegicus [7]): Non-toxic; Activity (Mus musculus [8]): inactive; Activity (Rattus norvegicus [10]): 88%; Activity (Mus musculus [11]): Non-toxic; Activity (Rattus norvegicus [12]): Active; Activity (Rattus norvegicus [14]): 59 s; Activity (Rattus norvegicus [15]): Non-toxic; Activity (Mus musculus [18]): Non-toxic; Activity (Rattus norvegicus [19]): 100%; Activity (Mus musculus [22]): inactive; Activity (Rattus norvegicus [23]): 63%; Activity (Mus musculus [24]): inactive; Activity (Rattus norvegicus [25]): Non-toxic |
| O=C1NC(=O)C(c2ccccc2)(c2ccccc2)N1 [PHENYTOIN] | – | > 50 mg/kg | > 1000 mg/kg | – | > 500 mg/kg | < 0.82 | – | – | – | – | 2 | 28.1 mg/kg | 5.64 mg/kg | – |
| C#Cc1ccc2c(c1)C(c1ccccc1Cl)=NCc1nnc(C)n1-2 | – | 1.03 mg/kg | – | – | 1.58 mg/kg | 2.8 | – | – | – | – | > 105 | > 150 mg/kg | > 6 mg/kg | Activity (Rattus norvegicus [28]): Non-toxic; Activity (Rattus norvegicus [5]): inactive; Activity (Rattus norvegicus [29]): Non-toxic; Activity (Rattus norvegicus [30]): Active; Activity (Rattus norvegicus [19]): Active; Activity (Rattus norvegicus [31]): 92 s; Activity (Rattus norvegicus [32]): inactive; Activity (Rattus norvegicus [33]): 50%; Activity (Rattus norvegicus [34]): Non-toxic |
| O=C1CN=C(c2ccccc2Cl)c2cc([N+](=O)[O-])ccc2N1 [CLONAZEPAM] | – | 0.02 mg/kg | 2.38 mg/kg | 0.26 mg/kg | 0.61 mg/kg | 13 | – | – | – | – | 3.9 | 7.86 mg/kg | 25.6 mg/kg | – |
| NC(=O)N1c2ccccc2C=Cc2ccccc21 [CARBAMAZEPINE] | – | > 50 mg/kg | – | – | > 250 mg/kg | – | – | – | – | – | – | 5.35 mg/kg | 7.81 mg/kg | – |
| CCOC(=O)c1ncn2c1CN=C(c1ccccc1F)c1cc(I)ccc1-2 | – | – | – | – | – | – | – | Non-toxic | – | – | – | – | – | Activity (Rattus norvegicus [35]): Non-toxic; Activity (Rattus norvegicus [10]): inactive; Activity (Rattus norvegicus [36]): Non-toxic; Activity (Rattus norvegicus [23]): inactive; Activity (Rattus norvegicus [34]): Non-toxic |
| C#Cc1ccc2c(c1)C(c1ccccc1F)=NCc1c(C(=O)OCC)ncn1-2 | 246% | 8.87 mg/kg | > 500 mg/kg | > 400 mg/kg | 23.7 mg/kg | > 44 | 596% | Non-toxic | 248% | 410% | > 21.1 | > 250 mg/kg | > 200 mg/kg | Activity (Rattus norvegicus [36]): Non-toxic; Activity (Rattus norvegicus [37]): Active; Activity (Rattus norvegicus [38]): Active; Activity (Rattus norvegicus [32]): inactive; Activity (Rattus norvegicus [25]): Non-toxic; Activity (Rattus norvegicus [39]): 38 s |
| CN1C(=O)CN=C(c2ccccc2)c2cc(Cl)ccc21 | 420% | – | – | – | – | – | 776% | – | 345% | 508% | – | – | – | – |
